Measured values: US6288110A, “Pharmaceutical compositions comprising disulfiram” (Yeda Research and Development Co Ltd., priority 1998, dated 2001)
Entries after “also recorded” stand apart in the source; their conditions may differ.

Key:
BALB/MK keratinocytes = experiment: Apoptosis by FACS in BALB/MK keratinocytes; type: cell-based, murine; details: 4 μM (not shown)
Description: Cells were cultured in plastic tissue culture dishes for 48 hours in presence of growth media as described above, until reaching 40-50% confluency. Disulfiram was then added to the cells for 20 hours. The cells were removed from the plates by EDTA-trypsin and fixed in ice-cold 70% ethanol (BioLab, Israel) in -20° C. for 2 hr to overnight. The fixed cells (2-5×10^6) were washed once with HEPES-buffered saline (HBSS) and incubated with 0.5 mg/ml RNAseH (Boehringer Mannheim). Afterwards the cells were resuspended in HBSS containing 50 μg/ml propidium iodide (Sigma) and subsequently analyzed on a FACSort flow cytometer (Beckton Dickinson Inc.) using Lysis II software. For the analysis, 10,000 cells were examined from each sample. The percentage of the hypodiploid cells was measured (Darzynkiewicz, 1992; Afanasyev, 1993). The cell cycle histogram was divided into four regions according to the cell cycle phases: Ap, apoptotic cells; G1, diploid cells; S, intermediate cells; and G2 /M, tetraploid cells.

C6 rat glioma cells = experiment: TUNEL assay for apoptosis, C6 rat glioma cells; type: cell-based; details: 5 μM, 6 hours
Description: Cells were cultured on microscope slides for 48 hours in presence of growth media as described above, until reaching 40-50% confluency. Disulfiram was then added to the cells for 6 hours or for 20 hours in the case of BALB/MK keratinocytes, fixed with 4% paraformaldehyde and washed three times with PBS. Apoptosis was analyzed by the in situ TUNEL staining carried out as described (Wride, 1994). Briefly, microscope slides were incubated for 15 min in 2×SSC buffer at 60° C., washed in DDW and incubated with 20 μg/ml proteinase K (Boehringer Mannheim) for 15 min at room temperature. After a wash with DDW, endogenous peroxidases were inactivated by incubating the slides with 2% H2 O2 in PBST (PBS with 0.05% Tween 20) for 10 min at room temperature. Slides were then incubated in TdT buffer (Boehringer Mannheim) for 5 min at room temperature, and a reaction mixture containing 5×TdT buffer and 1 μl biotin-21-dUTP (Clontech, 1 mM stock) and 8 units of the TdT enzyme (Boehringer Mannheim) in total volume of 50 μl was subsequently added. The reactions were carried out at 37° C. for 1.5 hr in a humid chamber. The slides were washed in 2×SSC, DDW and finally with PBS and covered with 10% skim milk in PBST for 15 min. […]

interleukin-1 = details: U.S. Pat. No. 4,870,101; cited from earlier work
all cell types examined = experiment: DNA synthesis, all cell types examined, higher concentrations; type: cell-based; details: >10 μM, all cell types examined (not shown)
Description: C6 rat glioma cells were plated in 96-well plates (Nunc, Denmark) (5000 cells per well) in DMEM with 5% FCS. After 6 hours the cells were rinsed and incubated for 48 hours in serum free medium. 5% FCS or growth factors were then added to the cells for 24 hours (triplicates). ^3 H-methyl-thymidine (5μCi/ml) (Rotem Ind. Ltd., Israel) was added to the cells for the last 14 hours. The cells were rinsed with 100 μl methanol for 10 minutes, followed by 200 μl 5% trichloroacetic acid, and then rinsed and lysed with 150 μl 0.3M NaOH. Radioactive thymidine incorporated into the DNA was determined for 1 min with 3 ml scintillation liquid (ULTIMA GOLD Packard) in a β-counter. DNA synthesis assays were performed in triplicates.
Bovine capillary endothelial cells (BCE) and bovine aortic BSMC were plated in 24-well plates (6000 cells per well) in 500 μl DMEM medium supplemented with 10% Colorado calf serum (CCS) (GIBCO, USA) and GPS. After 24 hours, medium was changed to starvation medium (2% CCS, 0.5% BSA, GPS) for 24 hours. ^3 H-methyl-thymidine (5 μCi/ml) was added for the last 6 hours. DNA synthesis assays were performed as described above, in triplicates. […]
Disulfiram was prepared in 0.1 mM stock solutions in DMSO. […] Inhibition was calculated as percentage of DNA synthesis of control.

superoxide dismutase = details: in vivo; cited from earlier work
[1] = test system: neovascularization induced by bFGF; experiment: Subcutaneous angiogenesis in nude mice (bFGF agarose bead), disulfiram per os; type: in vivo, CD1 nude male mice
Description: FIGS. 1A-1C show inhibition of neovascularization in nude mice by disulfiram (D). […] Bar is one mm.
Spherical agarose beads of approximately 1 mm in diameter were formed from 4% low gelling temperature agarose (Sigma) in PBS containing b-FGF or HB-EGF as angiogenic agent. The candidate angiogenic agent (10 μg/bead) was warmed in sterile microtest tubes to 40° C. in a dry-bath for a few seconds. 10 μl of agarose solution (6% in saline, 45° C.) were then added to 5 μl of the angiogenic compound and beads were formed above ice using a 20 μl pipette tip. Beads were implanted subcutaneously 1 cm away from the incision-site as reported previously for multicellular spheroids (Abramovitch, 1995) in mice anesthetized with a single dose of 75 mg/kg ketamine+3 mg/kg xylazine (i.p.). Experiments were carried out for 4 days in CD1 nude male mice. Each day one ml of aqueous solutions with or without 0.1-0.25 mM (25-60 μg) disulfiram was introduced per os to the mice using a feeding needle. Treatment was for three days starting from the day of bead implantation until one day before termination. Experiments were done in quadruplicates and repeated three times.
Agarose beads containing the angiogenic factor bFGF (10 μg/bead) were implanted subcutaneously into CD1 nude mice as described in section (d) of "Materials and Methods" above. […]

[2] = test system: neoplasia of the forestomach; details: benzo(a)pyrene, mice; cited from earlier work
mammary tumors = details: N-2-fluorenylacetamide or N-hydroxy-N-2-fluorenylacetamide, rats; cited from earlier work
[3] = test system: metabolism of the carcinogen azomethane; details: cited from earlier work
intestinal cancer = details: azoxymethane, rats; cited from earlier work

What does the source list for `CCN(CC)C(=S)SSC(=S)N(CC)CC` [disulfiram, Bis(diethylthiocarbamoyl) disulfide]?
apoptosis by FACS (BALB/MK keratinocytes): did not exhibit induction of apoptosis; apoptosis by TUNEL method (C6 rat glioma cells): not labeled; also recorded: did not induce; inhibition of interleukin-1 release (interleukin-1): effective to inhibit the release of interleukin-1; inhibition at higher concentrations (all cell types examined): became less inhibitory; inhibition of superoxide dismutase (superoxide dismutase): inhibited superoxide dismutase; inhibition of neovascularization induced by bFGF inside and around the bead ([1]; 60 μg/mouse systemically, 4 days after implantation): inhibited almost completely; angiogenesis around the beads containing bFGF ([1]; 25-60 μg/mouse/day per os, 3 days (1 ml of 0.1-0.25 mM)): clearly inhibited; interference with neoplasia of the forestomach [2]: interfere with induction of cancer; incidence of mammary tumors (mammary tumors): reduce the incidence of mammary tumors; inhibition of azomethane metabolism [3]: inhibited the metabolism; interference with induction of intestinal cancer (intestinal cancer): interfere with induction of cancer
